Laboratory results published in patent publication US6737383B1, “Herbicidal oxadiazolidines” (priority 1999, dated 2004).

Key:
Green foxtail [1] = assay: Test D green foxtail; assay type: in vivo; conditions: Postemergence, 0 to 100 scale, 0 no injury, 100 complete control
goosegrass = assay: Test D goosegrass; assay type: in vivo, Eleusine indica; conditions: Postemergence, 0 to 100 scale
itchgrass = assay: Test D itchgrass; assay type: in vivo, Rottboellia exaltata; conditions: Postemergence, 0 to 100 scale
Green foxtail [2] = assay: Test D green foxtail; assay type: in vivo; conditions: Postemergence, 0 to 100 scale, 0 no injury, 100 complete control; remark: listed apart in the source
large crabgrass = assay: Test D large crabgrass; assay type: in vivo, Digitaria sanguinalis; conditions: Postemergence, 0 to 100 scale
sandbur = assay: Test D sandbur; assay type: in vivo, Cenchrus echinatus; conditions: Postemergence, 0 to 100 scale
common groundsel = assay: Test D common groundsel; assay type: in vivo, Senecio vulgaris; conditions: Postemergence, 0 to 100 scale
Green foxtail [3] = assay: Test D green foxtail; assay type: in vivo; conditions: Rate 250 g/ha; Postemergence; 0 to 100 scale
common ragweed = assay: Test D common ragweed; assay type: in vivo, Ambrosia elatior; conditions: Postemergence, 0 to 100 scale
purple nutsedge = assay: Test D purple nutsedge; assay type: in vivo, Cyperus rotundus; conditions: Postemergence, 0 to 100 scale
bermuda-grass = assay: Test D bermudagrass; assay type: in vivo, Cynodon dactylon; conditions: Postemergence, 0 to 100 scale
[4] = Rate 16 g/ha, 0 no injury, 100 complete control
[5] = Rate 32 g/ha, 0 no injury, 100 complete control
[6] = Rate 64 g/ha, 0 no injury, 100 complete control
[7] = Rate 125 g/ha, 0 no injury, 100 complete control

CC(C)N(C(=O)n1oc(=O)n(C2CC2)c1=O)c1ccc(Cl)cc1 [Compound 241]
Plant response rating, Green foxtail (Green foxtail [1]; Rate 64 g/ha): 10 | Plant response rating, Green foxtail (Green foxtail [1]; Rate 125 g/ha): 100 | Plant response rating, Goosegrass (goosegrass; [4]): 0 | Plant response rating, Goosegrass (goosegrass; [5]): 100 | Plant response rating, Goosegrass (goosegrass; [6]): 100 | Plant response rating, Goosegrass (goosegrass; [7]): 100 | Plant response rating, Goosegrass (goosegrass; Rate 250 g/ha): 100 | Plant response rating, Itchgrass (itchgrass; [4]): 0 | Plant response rating, Itchgrass (itchgrass; [5]): 0 | Plant response rating, Itchgrass (itchgrass; [6]): 0 | Plant response rating, Itchgrass (itchgrass; [7]): 100 | Plant response rating, Itchgrass (itchgrass; Rate 250 g/ha): 100 | Plant response rating, Green foxtail (Green foxtail [2]; Rate 16 g/ha): 0 | Plant response rating, Green foxtail (Green foxtail [2]; Rate 32 g/ha): 10 | Plant response rating, Large crabgrass (large crabgrass; [4]): 0 | Plant response rating, Large crabgrass (large crabgrass; [5]): 70 | Plant response rating, Large crabgrass (large crabgrass; [6]): 100 | Plant response rating, Large crabgrass (large crabgrass; [7]): 100 | Plant response rating, Large crabgrass (large crabgrass; Rate 250 g/ha): 100 | Plant response rating, Sandbur (sandbur; [4]): 0 | Plant response rating, Sandbur (sandbur; [5]): 40 | Sandbur plant response rating (sandbur; [6]): 20 | Sandbur plant response rating (sandbur; [7]): 100 | Plant response rating, Sandbur (sandbur; Rate 250 g/ha): 90 | Plant response rating, Com. groundsel (common groundsel; [5]): 0 | Plant response rating, Com. groundsel (common groundsel; [6]): 0 | Plant response rating, Com. groundsel (common groundsel; [7]): 100 | Plant response rating, Com. groundsel (common groundsel; Rate 250 g/ha): 100 | Plant response rating, Green foxtail (Green foxtail [3]): 100 | Plant response rating, C. ragweed (common ragweed; [4]): 0 | Plant response rating, C. ragweed (common ragweed; [5]): 0 | Plant response rating, C. ragweed (common ragweed; [6]): 20 | Plant response rating, C. ragweed (common ragweed; [7]): 100 | Plant response rating, C. ragweed (common ragweed; Rate 250 g/ha): 100 | Plant response rating, Purple nutsedge (purple nutsedge; [4]): 0 | Plant response rating, Purple nutsedge (purple nutsedge; [5]): 0 | Purple nutsedge plant response rating (purple nutsedge; [6]): 0 | Purple nutsedge plant response rating (purple nutsedge; [7]): 0 | Plant response rating, Purple nutsedge (purple nutsedge; Rate 250 g/ha): 0 | Plant response rating, Bermudagrass (bermuda-grass; [4]): 0 | Plant response rating, Bermudagrass (bermuda-grass; [5]): 30 | Plant response rating, Bermudagrass (bermuda-grass; [6]): 100 | Plant response rating, Bermudagrass (bermuda-grass; [7]): 100 | Plant response rating, Bermudagrass (bermuda-grass; Rate 250 g/ha): 100

CC(C)N(C(=O)n1oc(=O)n(C2CCC2)c1=O)c1ccc(Cl)cc1 [Compound 349]
Plant response rating, Green foxtail (Green foxtail [1]; Rate 64 g/ha): 10 | Plant response rating, Green foxtail (Green foxtail [1]; Rate 125 g/ha): 80 | Plant response rating, Goosegrass (goosegrass; [4]): 0 | Plant response rating, Goosegrass (goosegrass; [5]): 20 | Plant response rating, Goosegrass (goosegrass; [6]): 100 | Plant response rating, Goosegrass (goosegrass; [7]): 100 | Plant response rating, Goosegrass (goosegrass; Rate 250 g/ha): 90 | Plant response rating, Itchgrass (itchgrass; [4]): 0 | Plant response rating, Itchgrass (itchgrass; [5]): 0 | Plant response rating, Itchgrass (itchgrass; [6]): 0 | Plant response rating, Itchgrass (itchgrass; [7]): 0 | Plant response rating, Itchgrass (itchgrass; Rate 250 g/ha): 0 | Plant response rating, Green foxtail (Green foxtail [2]; Rate 16 g/ha): 0 | Plant response rating, Green foxtail (Green foxtail [2]; Rate 32 g/ha): 0 | Plant response rating, Large crabgrass (large crabgrass; [4]): 0 | Plant response rating, Large crabgrass (large crabgrass; [5]): 0 | Plant response rating, Large crabgrass (large crabgrass; [6]): 70 | Plant response rating, Large crabgrass (large crabgrass; [7]): 100 | Plant response rating, Large crabgrass (large crabgrass; Rate 250 g/ha): 100 | Plant response rating, Sandbur (sandbur; [4]): 0 | Plant response rating, Sandbur (sandbur; [5]): 0 | Sandbur plant response rating (sandbur; [6]): 0 | Sandbur plant response rating (sandbur; [7]): 20 | Plant response rating, Sandbur (sandbur; Rate 250 g/ha): 80 | Plant response rating, Com. groundsel (common groundsel; [7]): 20 | Plant response rating, Com. groundsel (common groundsel; Rate 250 g/ha): 50 | Plant response rating, Green foxtail (Green foxtail [3]): 100 | Plant response rating, C. ragweed (common ragweed; [4]): 0 | Plant response rating, C. ragweed (common ragweed; [5]): 0 | Plant response rating, C. ragweed (common ragweed; [6]): 0 | Plant response rating, C. ragweed (common ragweed; [7]): 0 | Plant response rating, C. ragweed (common ragweed; Rate 250 g/ha): 20 | Plant response rating, Purple nutsedge (purple nutsedge; [4]): 0 | Plant response rating, Purple nutsedge (purple nutsedge; [5]): 0 | Purple nutsedge plant response rating (purple nutsedge; [6]): 0 | Purple nutsedge plant response rating (purple nutsedge; [7]): 0 | Plant response rating, Purple nutsedge (purple nutsedge; Rate 250 g/ha): 0 | Plant response rating, Bermudagrass (bermuda-grass; [4]): 0 | Plant response rating, Bermudagrass (bermuda-grass; [5]): 40 | Plant response rating, Bermudagrass (bermuda-grass; [6]): 70 | Plant response rating, Bermudagrass (bermuda-grass; [7]): 100 | Plant response rating, Bermudagrass (bermuda-grass; Rate 250 g/ha): 100

CC(C)N(C(=O)n1oc(=O)n(C2CCC2)c1=O)c1ccccc1 [Compound 348]
Plant response rating, Green foxtail (Green foxtail [1]; Rate 64 g/ha): 100 | Plant response rating, Green foxtail (Green foxtail [1]; Rate 125 g/ha): 100 | Plant response rating, Goosegrass (goosegrass; [4]): 50 | Plant response rating, Goosegrass (goosegrass; [5]): 90 | Plant response rating, Goosegrass (goosegrass; [6]): 100 | Plant response rating, Goosegrass (goosegrass; [7]): 100 | Plant response rating, Goosegrass (goosegrass; Rate 250 g/ha): 100 | Plant response rating, Itchgrass (itchgrass; [4]): 0 | Plant response rating, Itchgrass (itchgrass; [5]): 0 | Plant response rating, Itchgrass (itchgrass; [6]): 0 | Plant response rating, Itchgrass (itchgrass; [7]): 0 | Plant response rating, Itchgrass (itchgrass; Rate 250 g/ha): 100 | Plant response rating, Green foxtail (Green foxtail [2]; Rate 16 g/ha): 0 | Plant response rating, Green foxtail (Green foxtail [2]; Rate 32 g/ha): 20 | Plant response rating, Large crabgrass (large crabgrass; [4]): 20 | Plant response rating, Large crabgrass (large crabgrass; [5]): 60 | Plant response rating, Large crabgrass (large crabgrass; [6]): 100 | Plant response rating, Large crabgrass (large crabgrass; [7]): 100 | Plant response rating, Large crabgrass (large crabgrass; Rate 250 g/ha): 100 | Plant response rating, Sandbur (sandbur; [4]): 0 | Plant response rating, Sandbur (sandbur; [5]): 0 | Sandbur plant response rating (sandbur; [6]): 20 | Sandbur plant response rating (sandbur; [7]): 60 | Plant response rating, Sandbur (sandbur; Rate 250 g/ha): 100 | Plant response rating, Com. groundsel (common groundsel; [4]): 30 | Plant response rating, Com. groundsel (common groundsel; [6]): 50 | Plant response rating, Com. groundsel (common groundsel; [7]): 100 | Plant response rating, Com. groundsel (common groundsel; Rate 250 g/ha): 100 | Plant response rating, Green foxtail (Green foxtail [3]): 100 | Plant response rating, C. ragweed (common ragweed; [4]): 0 | Plant response rating, C. ragweed (common ragweed; [5]): 0 | Plant response rating, C. ragweed (common ragweed; [6]): 0 | Plant response rating, C. ragweed (common ragweed; [7]): 0 | Plant response rating, C. ragweed (common ragweed; Rate 250 g/ha): 20 | Plant response rating, Purple nutsedge (purple nutsedge; [4]): 0 | Plant response rating, Purple nutsedge (purple nutsedge; [5]): 0 | Purple nutsedge plant response rating (purple nutsedge; [6]): 0 | Purple nutsedge plant response rating (purple nutsedge; [7]): 0 | Plant response rating, Purple nutsedge (purple nutsedge; Rate 250 g/ha): 0 | Plant response rating, Bermudagrass (bermuda-grass; [4]): 0 | Plant response rating, Bermudagrass (bermuda-grass; [5]): 20 | Plant response rating, Bermudagrass (bermuda-grass; [6]): 100 | Plant response rating, Bermudagrass (bermuda-grass; [7]): 100 | Plant response rating, Bermudagrass (bermuda-grass; Rate 250 g/ha): 100
